Laboratory results published in US6359001B1, “Use of α-methyl-p-tyrosine to inhibit melanin production in iris melanocytes” (Pharmacia AB, priority 1997, dated 2002).
Like-named read-outs stand apart in the source and are kept apart here. Marks after values point to notes of the source that are not given here.

Key:
monkey iris = settings: cited from earlier work
iris = settings: cited from earlier work
uveal melanocytes [1] = test: Melanin production of cultured uveal (iris) melanocytes; assay type: cell-based; settings: for Melanin production: growth stage; for Melanin production by iris melanocytes (summary in words): in vitro experiments
Experimental: (§1) Uveal melanocytes were isolated and cultured from adult donor eyes. The iris was excised and placed in a dish with the posterior surface upward. The iris pigment epithelium was separated from the stroma after immersion in 0.25% trypsin solution (Gibco, USA) at 37° C. for 2 hour. The remaining iris stroma was placed in a 0.25% trypsin solution at 4° C. for 18 hours, followed by incubation at 37° C. for 1 hour. The isolated cells were collected. The trypsin solution was replaced by collagenase solution (400 U/ml, in F-12 medium, Sigma, USA) and incubated at 37° C. The collagenase solution was replaced, and the cells were collected, centrifuged, resuspended, and plated each hour for 3 hours.
(§2) The isolated uveal melanocytes were cultured in Falcon culture dishes (Becton Dickinson, USA) with FIC medium, which consisted of F-12 medium supplemented with 10% fetal bovine serum, 2 mM glutamine (all from Gibco), 10 ng/ml cholera toxin, 0.1 mM isobutylmethylxanthine, 50 μg/ml gentamicin (all from Sigma), and 20 ng/ml basic fibroblast growth factor (Promega, USA). The culture dishes were incubated in a humidified 5% CO2 atmosphere. The medium was changed three times a week. Geneticin (Sigma, USA); a cytotoxic agent, was added (100 μg/ml) for 3 to 7 days when necessary.
(§3) The 8 cell strains of uveal melanocytes used in the present study were isolated from donors with different iris color (brown and brown-blue).
(§4) Cultured uveal melanocytes were detached by trypsin-EDTA solution and counted in a hemocytometer, the cell suspensions were centrifuged, and the pellet was dissolved in 1 N NaOH. Melanin concentration was determined by measurement of optical density at 475 nm and compared with a standard curve obtained using synthetic melanin (Sigma). Melanin content was expressed as ng/cell.
Melanin production was calculated by determining the melanin content and the cell counts at the beginning and the end of each generation by the following formula: […]
where C0 and Ct represent the melanin content per cell at times 0 and time t, respectively; P is the population increase during time t, D is the doubling time of the uveal melanocytes; and Cp is melanin production per cell per day during time t.

uveal melanocytes [2] = test: Melanin content of cultured uveal (iris) melanocytes; assay type: cell-based; settings: for Melanin content: growth stage
Experimental: as §1, §2, §3, §4

tyrosinase = target: T1, tyrosinase (Homo sapiens, UniProt P14679); test: Tyrosinase activity in uveal melanocyte cell strains (adapted Pomerantz method, 3H2O release); assay type: cell-based; settings: for Tyrosinase activity: growth stage
T1 construct: endogenous in cells; host or cells: primary uveal (iris) melanocyte cell strains from donor eyes (brown and brown-blue irises)
T1 sequence (P14679 19-529): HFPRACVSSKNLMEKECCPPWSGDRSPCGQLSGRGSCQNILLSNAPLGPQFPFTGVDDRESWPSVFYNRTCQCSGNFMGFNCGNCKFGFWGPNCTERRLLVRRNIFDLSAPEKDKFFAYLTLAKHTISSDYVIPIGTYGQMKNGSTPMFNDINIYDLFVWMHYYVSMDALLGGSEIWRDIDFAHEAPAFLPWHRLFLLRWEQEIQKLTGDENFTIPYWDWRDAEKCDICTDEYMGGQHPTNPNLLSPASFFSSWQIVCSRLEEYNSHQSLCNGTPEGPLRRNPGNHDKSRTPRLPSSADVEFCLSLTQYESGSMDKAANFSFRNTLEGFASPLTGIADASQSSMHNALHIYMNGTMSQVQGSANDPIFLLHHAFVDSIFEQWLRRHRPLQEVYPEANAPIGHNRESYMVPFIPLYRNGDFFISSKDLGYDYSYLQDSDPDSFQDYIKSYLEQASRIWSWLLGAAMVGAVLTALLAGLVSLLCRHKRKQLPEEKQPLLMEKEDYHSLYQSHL
Experimental: as §1, §2, §3
Tyrosinase activity was evaluated in nine cell strains using an adaptation of the Pomerantz method, which is based on the measurement of ^3H2O released by the enzymatic hydroxylation of tyrosine.

[3] = clinical concentrations for the treatment of pheocromocytoma; cited from earlier work
[4] = 3 cell strains (brown-blue), latanoprost 10^−5 M, no α-methyl-p-tyrosine
[5] = 3 cell strains (brown-blue), latanoprost 10^−6 M, no α-methyl-p-tyrosine
[6] = 3 cell strains (brown-blue), latanoprost 10^−7 M, no α-methyl-p-tyrosine
[7] = 3 cell strains (brown-blue), latanoprost 10^−8 M, no α-methyl-p-tyrosine
[8] = 5 cell strains (brown), latanoprost 10^−5 M, no α-methyl-p-tyrosine
[9] = 5 cell strains (brown), latanoprost 10^−6 M, no α-methyl-p-tyrosine
[10] = 5 cell strains (brown), latanoprost 10^−7 M, no α-methyl-p-tyrosine
[11] = 5 cell strains (brown), latanoprost 10^−8 M, no α-methyl-p-tyrosine
[12] = brown and brown-blue iris strains, latanoprost at the highest molar concentrations
[13] = 3 cell strains (brown-blue), α-methyl-p-tyrosine 10^−5, no latanoprost
[14] = 3 cell strains (brown-blue), α-methyl-p-tyrosine 10^−5 with latanoprost 10^−5 M
[15] = 3 cell strains (brown-blue), α-methyl-p-tyrosine 10^−5 with latanoprost 10^−6 M
[16] = 3 cell strains (brown-blue), α-methyl-p-tyrosine 10^−5 with latanoprost 10^−7 M
[17] = 3 cell strains (brown-blue), α-methyl-p-tyrosine 10^−5 with latanoprost 10^−8 M
[18] = 5 cell strains (brown), α-methyl-p-tyrosine 10^−5, no latanoprost
[19] = 5 cell strains (brown), α-methyl-p-tyrosine 10^−5 with latanoprost 10^−5 M
[20] = 5 cell strains (brown), α-methyl-p-tyrosine 10^−5 with latanoprost 10^−6 M
[21] = 5 cell strains (brown), α-methyl-p-tyrosine 10^−5 with latanoprost 10^−7 M
[22] = 5 cell strains (brown), α-methyl-p-tyrosine 10^−5 with latanoprost 10^−8 M
[23] = α-methyl-p-tyrosine 10^−5 M added with latanoprost 10^−7 to 10^−5 M, brown and brown-blue irises

SMILES: CCCCC[C@H](O)/C=C/[C@H]1[C@H](O)CC(=O)[C@@H]1C/C=C\CCCC(=O)O [PGE2]
- Pigmentation of the monkey iris (monkey iris; chronic treatment): increased pigmentation

SMILES: CCCCC[C@H](O)/C=C/[C@@H]1[C@@H](C/C=C\CCCC(=O)O)[C@@H](O)C[C@H]1O [PGF2α]
- Pigmentation of the monkey iris (monkey iris; monkey, in vivo): increased pigmentation

SMILES: CCCCCCCC(=O)CC[C@@H]1[C@@H](C/C=C\CCCC(=O)OC(C)C)[C@@H](O)C[C@H]1O [isopropyl unoprostone, 13,14-dihydro-15-keto-20-ethyl-PGF2α isopropylester]
- Iris colour change in patients (iris; human, in vivo): darkening of the iris

SMILES: CC(C)OC(=O)CCC/C=C\C[C@@H]1[C@@H](CC[C@@H](O)CCc2ccccc2)[C@H](O)C[C@@H]1O [latanoprost, 13,14-dihydro-17-phenyl-18,19,20-tri-nor-PGF2αisopropyl ester]
- Iris colour change in patients (iris; chronic therapy, sometimes noted): darkening of the iris
- Melanin production (uveal melanocytes [1]; [4]): 0.0067* ng/cell/day
- Melanin production (uveal melanocytes [1]; [5]): 0.0056* ng/cell/day
- Melanin production (uveal melanocytes [1]; [6]): 0.0046* ng/cell/day
- Melanin production (uveal melanocytes [1]; [7]): 0.0038 ng/cell/day
- Melanin production (uveal melanocytes [1]; [8]): 0.0047* ng/cell/day
- Melanin production (uveal melanocytes [1]; [9]): 0.0036 ng/cell/day
- Melanin production (uveal melanocytes [1]; [10]): 0.0046* ng/cell/day
- Melanin production (uveal melanocytes [1]; [11]): 0.0038 ng/cell/day
- Melanin production (in words) (uveal melanocytes [1]; [12]): increased
- Melanin content (uveal melanocytes [2]; [4]): 0.0151* ng/cell
- Melanin content (uveal melanocytes [2]; [5]): 0.0149* ng/cell
- Melanin content (uveal melanocytes [2]; [6]): 0.0142* ng/cell
- Melanin content (uveal melanocytes [2]; [7]): 0.0127 ng/cell
- Melanin content (uveal melanocytes [2]; [8]): 0.0149* ng/cell
- Melanin content (uveal melanocytes [2]; [9]): 0.0161* ng/cell
- Melanin content (uveal melanocytes [2]; [10]): 0.0151 ng/cell
- Melanin content (uveal melanocytes [2]; [11]): 0.0141 ng/cell
- Melanin content (in words) (uveal melanocytes [2]; [12]): increased
- Pigmentation of the monkey iris (monkey iris; chronic treatment): increased pigmentation
- Tyrosinase activity (tyrosinase; [4]): 62.7* units
- Tyrosinase activity (tyrosinase; [5]): 52.5* units
- Tyrosinase activity (tyrosinase; [6]): 48.1* units
- Tyrosinase activity (tyrosinase; [7]): 33.7 units
- Tyrosinase activity (tyrosinase; [8]): 63.1* units
- Tyrosinase activity (tyrosinase; [9]): 42.5 units
- Tyrosinase activity (tyrosinase; [10]): 38.3 units
- Tyrosinase activity (tyrosinase; [11]): 36.7 units
- Tyrosinase activity (in words) (tyrosinase; [12]): increased

SMILES: CC(N)(Cc1ccc(O)cc1)C(=O)O (stereo not drawn) [α-methyl-p-tyrosine, α-methyl-para-tyrosine]
- Melanin production (uveal melanocytes [1]; [13]): 0.0023 ng/cell/day
- Melanin production (uveal melanocytes [1]; [14]): 0.0031 ng/cell/day
- Melanin production (uveal melanocytes [1]; [15]): 0.0029 ng/cell/day
- Melanin production (uveal melanocytes [1]; [16]): 0.0029 ng/cell/day
- Melanin production (uveal melanocytes [1]; [17]): 0.0025 ng/cell/day
- Melanin production (uveal melanocytes [1]; [18]): 0.0033 ng/cell/day
- Melanin production (uveal melanocytes [1]; [19]): 0.0031 ng/cell/day
- Melanin production (uveal melanocytes [1]; [20]): 0.0029 ng/cell/day
- Melanin production (uveal melanocytes [1]; [21]): 0.0039 ng/cell/day
- Melanin production (uveal melanocytes [1]; [22]): 0.0035 ng/cell/day
- Melanin production by iris melanocytes (summary in words) (uveal melanocytes [1]): inhibited
- Melanin production by iris melanocytes (summary in words) (uveal melanocytes [1]; listed as α-methyl-para-tyrosine): significantly reduced
- Melanin production (in words) (uveal melanocytes [1]; [23]): significant decrease
- Melanin content (uveal melanocytes [2]; [13]): 0.0122 ng/cell
- Melanin content (uveal melanocytes [2]; [14]): 0.0128 ng/cell
- Melanin content (uveal melanocytes [2]; [15]): 0.0125 ng/cell
- Melanin content (uveal melanocytes [2]; [16]): 0.0123 ng/cell
- Melanin content (uveal melanocytes [2]; [17]): 0.0119 ng/cell
- Melanin content (uveal melanocytes [2]; [18]): 0.0133 ng/cell
- Melanin content (uveal melanocytes [2]; [19]): 0.0131 ng/cell
- Melanin content (uveal melanocytes [2]; [20]): 0.0137 ng/cell
- Melanin content (uveal melanocytes [2]; [21]): 0.0136 ng/cell
- Melanin content (uveal melanocytes [2]; [22]): 0.0135 ng/cell
- Melanin content (in words) (uveal melanocytes [2]; [23]): significant decrease
- Tyrosinase activity (tyrosinase; [13]): 32.4 units
- Tyrosinase activity (tyrosinase; [14]): 39.5 units
- Tyrosinase activity (tyrosinase; [15]): 34.6 units
- Tyrosinase activity (tyrosinase; [16]): 31.7 units
- Tyrosinase activity (tyrosinase; [17]): 34.6 units
- Tyrosinase activity (tyrosinase; [18]): 33.6 units
- Tyrosinase activity (tyrosinase; [19]): 31.5 units
- Tyrosinase activity (tyrosinase; [20]): 34.6 units
- Tyrosinase activity (tyrosinase; [21]): 38.7 units
- Tyrosinase activity (tyrosinase; [22]): 35.5 units
- Tyrosinase activity (in words) (tyrosinase; [23]): significant decrease
- Catecholamine concentration in the body [3]: markedly reduced
